Molecular target: α-glucosidase (Saccharomyces cerevisiae, UniProt P38158)
Test: In vitro α-glucosidase inhibition assay
Format: biochemical, S. cerevisiae
Conditions: for inhibition at 500 µM: read-out: percent inhibition (0.5 mM)

α-glucosidase, sequence (P38158 whole entry): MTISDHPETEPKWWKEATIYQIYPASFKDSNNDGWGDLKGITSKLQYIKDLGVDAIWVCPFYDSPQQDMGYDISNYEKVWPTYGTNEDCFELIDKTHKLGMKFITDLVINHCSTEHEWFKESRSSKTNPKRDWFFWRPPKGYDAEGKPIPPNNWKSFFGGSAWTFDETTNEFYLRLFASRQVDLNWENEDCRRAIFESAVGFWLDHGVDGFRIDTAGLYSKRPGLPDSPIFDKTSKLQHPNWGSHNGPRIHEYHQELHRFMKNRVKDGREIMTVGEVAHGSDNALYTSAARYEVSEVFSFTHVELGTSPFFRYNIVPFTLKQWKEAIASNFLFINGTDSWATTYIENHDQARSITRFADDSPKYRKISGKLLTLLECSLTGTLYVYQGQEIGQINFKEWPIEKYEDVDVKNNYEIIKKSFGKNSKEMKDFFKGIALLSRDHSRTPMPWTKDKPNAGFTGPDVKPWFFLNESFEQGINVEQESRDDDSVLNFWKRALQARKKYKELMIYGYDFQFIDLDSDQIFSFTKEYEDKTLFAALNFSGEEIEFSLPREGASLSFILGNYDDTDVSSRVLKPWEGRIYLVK

inhibition at 500 µM	IC50	SMILES
58.5%	–	C[C@H]1O[C@H](O[C@H]2[C@H](O)[C@@H](O)[C@@H](O[C@H]3[C@H](O)[C@@H](O)C(O)O[C@@H]3CO)O[C@@H]2CO)[C@H](O)[C@@H](O)[C@@H]1N[C@H]1C=C(CO)[C@@H](O)[C@H](O)[C@H]1O (stereo partly shown) [acarbose, reference compound]
94.7%	18.7 ± 0.74 µM	COc1cc(C=Nc2ccc3[nH]c(S)nc3c2)cc(OC)c1OC [7j, 5-((3,4,5-Trimethoxybenzylidene)amino)-1H-benzo[d]imidazole-2-thiol]
93.2%	27.3 ± 0.3 µM	Sc1nc2cc(N=Cc3ccc(Cl)cc3)ccc2[nH]1 [7b, 5-((4-Chlorobenzylidene)amino)-1H-benzo[d]imidazole-2-thiol]
95%	6.46 ± 0.3 µM	COc1ccc(C=Nc2ccc3[nH]c(S)nc3c2)c(OC)c1 [7f, 5-((2,4-Dimethoxybenzylidene)amino)-1H-benzo[d]imidazole-2-thiol]
87.6%	70.3 ± 1.52 µM	Sc1nc2cc(N=Cc3cccs3)ccc2[nH]1 [7k, 5-((Thiophen-2-ylmethylene)amino)-1H-benzo[d]imidazole-2-thiol]
96.6%	5.34 ± 0.16 µM	CCN(CC)c1ccc(C=Nc2ccc3[nH]c(S)nc3c2)cc1 [7d, 5-((4-(Diethylamino)benzylidene)amino)-1H-benzo[d]imidazole-2-thiol]
91.7%	20.7 ± 0.59 µM	COc1ccc(C=Nc2ccc3[nH]c(S)nc3c2)cc1OC [7h, 5-((3,4-Dimethoxybenzylidene)amino)-1H-benzo[d]imidazole-2-thiol]
94%	11.1 ± 0.79 µM	Cc1ccc(C=Nc2ccc3[nH]c(S)nc3c2)cc1 [7m, 5-((4-Methylbenzylidene)amino)-1H-benzo[d]imidazole-2-thiol]
95.7%	9.84 ± 0.08 µM	O=[N+]([O-])c1ccc(C=Nc2ccc3[nH]c(S)nc3c2)cc1 [7c, 5-((4-Nitrobenzylidene)amino)-1H-benzo[d]imidazole-2-thiol]
91.3%	16.4 ± 0.53 µM	COc1cccc(C=Nc2ccc3[nH]c(S)nc3c2)c1O [7e, 2-(((2-Mercapto-1H-benzo[d]imidazol-5-yl)imino)methyl)-6-methoxyphenol]
95.7%	11.8 ± 0.26 µM	Oc1ccc(C=Nc2ccc3[nH]c(S)nc3c2)cc1 [7a, 4-(((2-Mercapto-1H-benzo[d]imidazol-5-yl)imino)methyl)phenol]
83.2%	343.1 ± 1.62 µM	COc1ccccc1C=Nc1ccc2[nH]c(S)nc2c1 [7l, 5-((2-Methoxybenzylidene)amino)-1H-benzo[d]imidazole-2-thiol]
95.4%	0.64 ± 0.05 µM	Oc1ccc(C=Nc2ccc3[nH]c(S)nc3c2)c(O)c1 [7i, 4-(((2-Mercapto-1H-benzo[d]imidazol-5-yl)Imino)methyl)benzene-1,3-diol]

From publication PMC9730482 (ACS Omega, 2022)
